Like-named read-outs stand apart in the source and are kept apart here.
What was measured:
[1] = Brain penetration and plasma/brain pharmacokinetics in combination with Temodar or Lynparza; conditions: for Vd: iv, 10 mg/kg, Vss—obs
Procedure: A similar analysis was performed with LMP744 and LMP400 in combination with Temodar and Lynparza.

γ-H2AX [2] = assay: Western blot of RS4;11 tumor xenograft tissue; format: in vivo, human
[3] = format: in vivo
in vivo = format: in vivo
γ-H2AX [4] = assay: Western blot of RD-ES tumor xenograft tissue; format: in vivo, human
From the text: (§1) In several cases, the levels of c-Myc were more greatly depressed at the lower dose level. For examples, see the 9-hour data for G104 in Tables 17 and 18 and the 6-hour data in Table 19. […] Overall, there are many unexpected and unexplained aspects of the data in Tables 17-19, which are highly variable and also highly dependent on cell type. In particular, drug-induced increases in c-Myc expression relative to control and the larger changes in c-Myc expression seen at lower vs. higher doses are counterintuitive and unexplained.

c-Myc [5] = assay: Western blot of RD-ES tumor xenograft tissue; format: in vivo, human
From the text: as §1

c-Myc [6] = assay: Western blot of MOLT-4 tumor xenograft tissue; format: in vivo, human
c-Myc [7] = assay: Western blot of RS4;11 tumor xenograft tissue; format: in vivo, human
From the text: as §1

[8] = 10 mg/kg IV + Lynparza 100 mg/kg PO, 0.25 h
[9] = 10 mg/kg IV + Lynparza 100 mg/kg PO, 0.5 h
[10] = 10 mg/kg IV + Lynparza 100 mg/kg PO, 1 h
[11] = 10 mg/kg IV + Lynparza 100 mg/kg PO, 2 h
[12] = 10 mg/kg IV + Lynparza 100 mg/kg PO, 4 h
[13] = 10 mg/kg IV + Lynparza 100 mg/kg PO, 8 h
[14] = 10 mg/kg IV + Lynparza 100 mg/kg PO, 24 h
[15] = LMP400 10 mg/kg IV + Temador 125 mg/kg PO, 0.25 h
[16] = LMP400 10 mg/kg IV + Temador 125 mg/kg PO, 0.5 h
[17] = LMP400 10 mg/kg IV + Temador 125 mg/kg PO, 2 h
[18] = LMP400 10 mg/kg IV + Temador 125 mg/kg PO, 4 h
[19] = LMP400 10 mg/kg IV + Temador 125 mg/kg PO, 8 h
[20] = LMP400 10 mg/kg IV + Temador 125 mg/kg PO, 24 h
[21] = brain, 10 mg/kg IV + Lynparza 100 mg/kg PO
[22] = brain, LMP400 10 mg/kg IV + Temador 125 mg/kg PO
[23] = plasma, 10 mg/kg IV + Lynparza 100 mg/kg PO
[24] = plasma, LMP400 10 mg/kg IV + Temador 125 mg/kg PO

COc1cc2c3c(n(CCCN4CCOCC4)c(=O)c2cc1OC)-c1cc2c(cc1C3=O)OCO2 [LMP400, indotecan]
Brain Conc [1, 8]: 14924 ± 107 nM
Brain/Plasma Conc Ratio [1, 8]: 4.58
Plasma Conc [1, 8]: 3258 ± 295 nM
Brain Conc [1, 9]: 12083 ± 1787 nM
Brain/Plasma Conc Ratio [1, 9]: 5.42
Plasma Conc [1, 9]: 2231 ± 419 nM
Brain Conc [1, 10]: 6670 ± 431 nM
Plasma Conc [1, 10]: 1787 ± 169 nM
Brain Conc [1, 11]: 3766 ± 408 nM
Brain/Plasma Conc Ratio [1, 11]: 2.73
Plasma Conc [1, 11]: 1381 ± 84 nM
Brain Conc [1, 12]: 2666 ± 265 nM
Brain/Plasma Conc Ratio [1, 12]: 2.83
Plasma Conc [1, 12]: 941 ± 190 nM
Brain Conc [1, 13]: 1162 ± 104 nM
Plasma Conc [1, 13]: 491 ± 53 nM
Brain Conc [1, 14]: 235 ± 76 nM
Plasma Conc [1, 14]: 111 ± 39 nM
Brain/Plasma Conc Ratio [1, 15]: 5.99
Plasma Conc [1, 15]: 2311 ± 274 nM
Brain Conc [1, 16]: 10074 ± 1157 nM
Brain/Plasma Conc Ratio [1, 16]: 5.20
Plasma Conc ([1]; LMP400 10 mg/kg IV + Temador 125 mg/kg PO, 1 h): 1944 ± 211 nM
Brain/Plasma Conc Ratio [1, 17]: 3.16
Plasma Conc [1, 17]: 1041 ± 57 nM
Brain Conc [1, 18]: 1722 ± 226 nM
Brain/Plasma Conc Ratio [1, 18]: 2.79
Plasma Conc [1, 18]: 617 ± 24 nM
Brain Conc [1, 19]: 919 ± 165 nM
Brain/Plasma Conc Ratio [1, 19]: 1.91
Plasma Conc [1, 19]: 481 ± 104 nM
Brain Conc [1, 20]: 177 ± 70 nM
Brain/Plasma Conc Ratio [1, 20]: 0.96
AUCInf [1, 21]: 20928 ng·h/g
AUClast [1, 21]: 19983 ng·h/g
AUC—% Extrap—obs [1, 21]: 4.51%
Cmax [1, 21]: 12173 ng/g
T1/2 [1, 21]: 6.01 h
AUCInf [1, 22]: 16590 ng·h/g
AUClast [1, 22]: 15811 ng·h/g
AUC—% Extrap—obs [1, 22]: 4.70%
Cmax [1, 22]: 9080 ng/g
MRTInf—obs [1, 22]: 5.67 h
T1/2 [1, 22]: 6.35 h
Tmax [1, 22]: 4.98 min
concentration at 0.25 h ([1]; mouse, brain, intravenous, Brain Conc, LMP400 10 mg/kg IV + Temador 125 mg/kg PO, 0.25 h): 13800 ± 638 nM
concentration at 1 h ([1]; mouse, brain, intravenous, Brain Conc, LMP400 10 mg/kg IV + Temador 125 mg/kg PO, 1 h): 5360 ± 276 nM
concentration at 2 h ([1]; mouse, brain, intravenous, Brain Conc, LMP400 10 mg/kg IV + Temador 125 mg/kg PO, 2 h): 5290 ± 321 nM
concentration at 0.5 h ([1]; mouse, plasma, intravenous, Plasma Conc, LMP400 10 mg/kg IV + Temador 125 mg/kg PO, 0.5 h): 1940 ± 274 nM
Vd ([1]; mouse, plasma, plasma, 10 mg/kg IV + Lynparza 100 mg/kg PO): 10.4 L/kg
Vd ([1]; mouse, plasma, plasma, LMP400 10 mg/kg IV + Temador 125 mg/kg PO): 11.9 L/kg
AUCInf [1, 23]: 7144 ng·h/mL
AUClast [1, 23]: 6642 ng·h/mL
AUClast/D [1, 23]: 664 h·ng/mL per mg/kg
AUC—% Extrap—obs [1, 23]: 7.02%
C0 [1, 23]: 2286 ng/mL
Cl_obs [1, 23]: 23.3 mL/min/kg
T1/2 [1, 23]: 6.74 h
AUCInf [1, 24]: 6248 ng·h/mL
AUClast [1, 24]: 5823 ng·h/mL
AUClast/D [1, 24]: 582 h·ng/mL per mg/kg
AUC—% Extrap—obs [1, 24]: 6.80%
C0 [1, 24]: 3042 ng/mL
Cl_obs [1, 24]: 26.7 mL/min/kg
MRTInf—obs [1, 24]: 7.41 h
T1/2 [1, 24]: 7.03 h

CCNCCCn1c2c(c3cc(OC)c(OC)cc3c1=O)C(=O)c1cc3c(nc1-2)OCO3 [G104, 6-(3-(Ethylamino)propyl)-2,3-dimethoxy-5H-[1,3]dioxolo[4″,5″:5′,6′]pyrido [3′,2′:4,5]cyclopenta[1,2-c]isoquinoline-5,12(6H)-dione]
γ-H2AX/GAPDH, % Relative to Vehicle (γ-H2AX [2]; RS4;11, IV 15 mg/kg, 3 h): 133.08 ± 38.59%
γ-H2AX/GAPDH, % Relative to Vehicle (γ-H2AX [2]; RS4;11, IV 15 mg/kg, 9 h): 142.66 ± 23.92%
γ-H2AX/GAPDH, % Relative to Vehicle (γ-H2AX [2]; RS4;11, IV 30 mg/kg, 3 h): 150.28 ± 29.86%
γ-H2AX/GAPDH, % Relative to Vehicle (γ-H2AX [2]; RS4;11, IV 30 mg/kg, 9 h): 220.37 ± 47.79%
Mean Tumor/Plasma Ratio ([3]; MOLT-4, 3 h, IV 15 mg/kg): 51.3 ± 6.7
Mean Tumor/Plasma Ratio ([3]; MOLT-4, 3 h, IV 30 mg/kg): 69.5 ± 8.8
Mean Tumor/Plasma Ratio ([3]; MOLT-4, 9 h, IV 15 mg/kg): 125 ± 29
Mean Tumor/Plasma Ratio ([3]; MOLT-4, 9 h, IV 30 mg/kg): 106 ± 21
Kp at 3 h (in vivo; NOD SCID, mouse, tumor and plasma, RS4;11, 3 h, IV 15 mg/kg, read-out: Mean Tumor/Plasma Ratio): 76.1 ± 18.9
Mean Tumor/Plasma Ratio (in vivo; RS4;11, 3 h, IV 30 mg/kg): 77.3 ± 11.8
Mean Tumor/Plasma Ratio (in vivo; RS4;11, 9 h, IV 15 mg/kg): 130 ± 32
Mean Tumor/Plasma Ratio (in vivo; RS4;11, 9 h, IV 30 mg/kg): 112 ± 16
γ-H2AX/GAPDH, % Relative to Vehicle (γ-H2AX [4]; IV 15 mg/kg, 3 h): 155.18 ± 11.44%
γ-H2AX/GAPDH, % Relative to Vehicle (γ-H2AX [4]; IV 15 mg/kg, 6 h): 101.89 ± 7.35%
γ-H2AX/GAPDH, % Relative to Vehicle (γ-H2AX [4]; IV 30 mg/kg, 3 h): 85.61 ± 23.26%
γ-H2AX/GAPDH, % Relative to Vehicle (γ-H2AX [4]; IV 30 mg/kg, 6 h): 99.26 ± 10.19%
c-Myc/GAPDH, % Relative to Vehicle (c-Myc [5]; IV 15 mg/kg, 3 h): 128.94 ± 6.14%
c-Myc/GAPDH, % Relative to Vehicle (c-Myc [5]; IV 15 mg/kg, 6 h): 53.57 ± 10.75%
c-Myc/GAPDH, % Relative to Vehicle (c-Myc [5]; IV 30 mg/kg, 3 h): 188.78 ± 28.24%
c-Myc/GAPDH, % Relative to Vehicle (c-Myc [5]; IV 30 mg/kg, 6 h): 91.67 ± 23.70%
c-Myc/GAPDH, % Relative to Vehicle (c-Myc [6]; MOLT-4, IV 15 mg/kg, 3 h): 119.75 ± 13.40%
c-Myc/GAPDH, % Relative to Vehicle (c-Myc [6]; MOLT-4, IV 15 mg/kg, 9 h): 88.54 ± 7.63%
c-Myc/GAPDH, % Relative to Vehicle (c-Myc [6]; MOLT-4, IV 30 mg/kg, 3 h): 114.32 ± 4.41%
c-Myc/GAPDH, % Relative to Vehicle (c-Myc [6]; MOLT-4, IV 30 mg/kg, 9 h): 100.33 ± 2.35%
c-Myc/GAPDH, % Relative to Vehicle (c-Myc [7]; RS4;11, IV 15 mg/kg, 3 h): 92.20 ± 2.11%
c-Myc/GAPDH, % Relative to Vehicle (c-Myc [7]; RS4;11, IV 15 mg/kg, 9 h): 92.59 ± 13.64%
c-Myc/GAPDH, % Relative to Vehicle (c-Myc [7]; RS4;11, IV 30 mg/kg, 3 h): 111.60 ± 8.19%
c-Myc/GAPDH, % Relative to Vehicle (c-Myc [7]; RS4;11, IV 30 mg/kg, 9 h): 100.31 ± 2.71%

— patent US20240287089A1, “Preparation and Uses of 7-Azaindenoisoquinolines” (Purdue Research Foundation, priority 0001, published 2024)
